# Measured values as given in US20230109010A1, “PESTICIDE COMPOSITIONS WITH SUPRAMOLECULAR STRUCTURES FOR AGRICULTURAL USE” (BPS JUST ENERGY TECHNOLOGY, LLC, priority 2020, published 2023).
# Tests used:
# [1] = system: large crabgrass; assay: Field trial in corn, herbicide applied 3 days after planting, % weed control; format: in vivo, Digitaria sanguinalis
# Method: (§1) The herbicides tested were acetochlor and s-metolachlor. Each herbicide was combined at the specified rate with either deionized water or SymMAX™ supramolecular host chemistry that is commercially available from Shotwell Hydrogenics at 15 gallons per acre (GPA). Specified rates for acetochlor were 0.5 parts per acre, 1 part per acre, and 2 parts per acre. […]
# (§2) This example was conducted as a 4 replicate, RCBD (randomized control block design) in Quitman, GA. An untreated control was used as a standard that provided no weed control and no phytotoxicity. All treatments were compared to the untreated control. Counted dead weeds and living weeds were used to determine % weed control. The untreated control was also used to determine % crop phytotoxicity for the crop. Typical indications of phytotoxicity include chlorosis, stunting, epinasty, and/or leaf burn.
# (§3) The trial ran for 28 days with weekly data assessments taken on % crop phytotoxicity and % weed control of three key species: palmer amaranth (Amaranthus palmeri), fall panicum (Panicum dichotomiflorum) and large crabgrass (Digitaria sanguinalis). The test field was over seeded with weed seed obtained from the University of Georgia prior to corn planting. Treatments were applied 3 days after planting as a broadcast application at various rates ranging from about 0.5 parts per acre to about 2 parts per acre. Tables 1-4 show the % weed control when the weeds are treated with acetachlor. Tables 4-8 show the % weed control when the weeds are treated with s-metolachlor.
# [2] = system: fall panicum; assay: as above; format: in vivo, Panicum dichotomiflorum
# Method: as §1, §2, §3
# [3] = system: palmer amaranth; assay: as above; format: in vivo, Amaranthus palmeri
# Method: as §1, §2, §3
# [4] = system: palmer amaranth; assay: Field trial in corn at V3, broadcast treatment on 2-4 inch weeds, % weed control; format: in vivo, Amaranthus palmeri
# Source text: (§4) The herbicides tested were glufosinate, glyphosate, and mesotrione. Each herbicide was combined at the specified rate with either deionized water or SymMAX™ supramolecular host water mixture commercially available from Shotwell Hydrogenics at 15 gallons per acre (GPA). Specified rates for glufosinate were 22 ounces per acre, 11 ounces per acre, and 5.5 ounces per acre. Specified rates for glyphosate were 22 ounces per acre, 11 ounces per acre, and 5.5 ounces per acre. Specified rates for mesotrione were 3 ounces per acre, 2 ounces per acre, and 1 ounce per acre.
# as §2
# (§5) The trial ran for 14 days with weekly data assessments taken on % crop phytotoxicity and % weed control of four key species: palmer amaranth (Amaranthus palmeri), ivyleaf morning glory (Ipomoea hederacea), fall panicum (Panicum dichotomiflorum) and large crabgrass (Digitaria sanguinalis The test field was over seeded with weed seed obtained from the University of Georgia prior to corn planting. Treatments were applied as a broadcast treatment when corn had reached physiological growth stage V3 and weeds were in the 2-4″ size range. Treatments were applied at various rates ranging from about 1 ounce per acre to about 22 ounces per acre. Tables 9-10 show the % weed control when the weeds are treated with glufosinate. Tables 11-12 show the % weed control when the weeds are treated with glyphosphate. Tables 13-14 show the % weed control when the weeds are treated with mesotrione.
# [5] = system: large crabgrass; assay: as above; format: in vivo, Digitaria sanguinalis
# Source text: as §4, §2, §5
# [6] = system: fall panicum; assay: as above; format: in vivo, Panicum dichotomiflorum
# Source text: as §4, §2, §5
# [7] = system: ivyleaf morning glory; assay: as above; format: in vivo, Ipomoea hederacea
# Source text: as §4, §2, §5
# [8] = 7 days, acetochlor 0.5 part/acre
# [9] = 7 days, acetochlor 2 parts/acre
# [10] = 14 days, acetochlor 0.5 part/acre
# [11] = 14 days, acetochlor 1 part/acre
# [12] = 14 days, acetochlor 2 parts/acre
# [13] = 21 days, acetochlor 0.5 part/acre
# [14] = 21 days, acetochlor 1 part/acre
# [15] = 21 days, acetochlor 2 parts/acre
# [16] = 28 days, acetochlor 0.5 part/acre
# [17] = 28 days, acetochlor 1 part/acre
# [18] = 28 days, acetochlor 2 parts/acre
# [19] = 7 days, glufosinate 5.5 ounces/acre
# [20] = 7 days, glufosinate 11 ounces/acre
# [21] = 7 days, glufosinate 22 ounces/acre
# [22] = 14 days, glufosinate 5.5 ounces/acre
# [23] = 14 days, glufosinate 11 ounces/acre
# [24] = 14 days, glufosinate 22 ounces/acre
structure (smiles),measurement,setting,value
"CCOCN(C(=O)CCl)c1c(C)cccc1CC [Acetochlor, acetochlor]",% WEED CONTROL FOR LARGE CRABGRASS,[1]; [8],69.5%
same,% WEED CONTROL FOR LARGE CRABGRASS,"[1]; 7 days, acetochlor 1 part/acre",74.5%
same,% WEED CONTROL FOR LARGE CRABGRASS,[1]; [9],87.0%
same,% WEED CONTROL FOR LARGE CRABGRASS,[1]; [10],45.8%
same,% WEED CONTROL FOR LARGE CRABGRASS,[1]; [11],49.0%
same,% WEED CONTROL FOR LARGE CRABGRASS,[1]; [12],74.5%
same,% WEED CONTROL FOR LARGE CRABGRASS,[1]; [13],45.3%
same,% WEED CONTROL FOR LARGE CRABGRASS,[1]; [14],43.0%
same,% WEED CONTROL FOR LARGE CRABGRASS,[1]; [15],73.3%
same,% WEED CONTROL FOR LARGE CRABGRASS,[1]; [16],47.8%
same,% WEED CONTROL FOR LARGE CRABGRASS,[1]; [17],48.0%
same,% WEED CONTROL FOR LARGE CRABGRASS,[1]; [18],92.1%
same,% WEED CONTROL FOR FALL PANICUM,[2]; [8],65.5%
same,% WEED CONTROL FOR FALL PANICUM,"[2]; 7 days, acetochlor 1 part/acre",69.3%
same,% WEED CONTROL FOR FALL PANICUM,[2]; [9],87.3%
same,% WEED CONTROL FOR FALL PANICUM,[2]; [10],49.3%
same,% WEED CONTROL FOR FALL PANICUM,[2]; [11],53.0%
same,% WEED CONTROL FOR FALL PANICUM,[2]; [12],78.0%
same,% WEED CONTROL FOR FALL PANICUM,[2]; [13],37.6%
same,% WEED CONTROL FOR FALL PANICUM,[2]; [14],40.9%
same,% WEED CONTROL FOR FALL PANICUM,[2]; [15],81.3%
same,% WEED CONTROL FOR FALL PANICUM,[2]; [16],60.0%
same,% WEED CONTROL FOR FALL PANICUM,[2]; [17],57.3%
same,% WEED CONTROL FOR FALL PANICUM,[2]; [18],88.0%
same,% WEED CONTROL FOR PALMER AMARANTH,[3]; [8],87.0%
same,% WEED CONTROL FOR PALMER AMARANTH,"[3]; 7 days, acetochlor 1 part/acre",88.5%
same,% WEED CONTROL FOR PALMER AMARANTH,[3]; [9],93.3%
same,% WEED CONTROL FOR PALMER AMARANTH,[3]; [10],82.3%
same,% WEED CONTROL FOR PALMER AMARANTH,[3]; [11],87.0%
same,% WEED CONTROL FOR PALMER AMARANTH,[3]; [12],97.7%
same,% WEED CONTROL FOR PALMER AMARANTH,[3]; [13],61.7%
same,% WEED CONTROL FOR PALMER AMARANTH,[3]; [14],81.0%
same,% WEED CONTROL FOR PALMER AMARANTH,[3]; [15],90.0%
same,% WEED CONTROL FOR PALMER AMARANTH,[3]; [16],44.5%
same,% WEED CONTROL FOR PALMER AMARANTH,[3]; [17],67.4%
same,% WEED CONTROL FOR PALMER AMARANTH,[3]; [18],99.7%
"CP(=O)(O)CCC(N)C(=O)O (stereo not drawn) [Glufosinate, glufosinate]",% WEED CONTROL FOR PALMER AMARANTH,[4]; [19],51.5%
same,% WEED CONTROL FOR PALMER AMARANTH,[4]; [20],77.9%
same,% WEED CONTROL FOR PALMER AMARANTH,[4]; [21],82.6%
same,% WEED CONTROL FOR PALMER AMARANTH,[4]; [22],29.0%
same,% WEED CONTROL FOR PALMER AMARANTH,[4]; [23],69.3%
same,% WEED CONTROL FOR PALMER AMARANTH,[4]; [24],76.1%
same,% WEED CONTROL FOR LARGE CRABGRASS,[5]; [19],100.0%
same,% WEED CONTROL FOR LARGE CRABGRASS,[5]; [20],100.0%
same,% WEED CONTROL FOR LARGE CRABGRASS,[5]; [21],100.0%
same,% WEED CONTROL FOR LARGE CRABGRASS,[5]; [22],91.8%
same,% WEED CONTROL FOR LARGE CRABGRASS,[5]; [23],99.5%
same,% WEED CONTROL FOR LARGE CRABGRASS,[5]; [24],100.0%
same,% WEED CONTROL FOR FALL PANICUM,[6]; [19],100.0%
same,% WEED CONTROL FOR FALL PANICUM,[6]; [20],99.5%
same,% WEED CONTROL FOR FALL PANICUM,[6]; [21],100.0%
same,% WEED CONTROL FOR FALL PANICUM,[6]; [22],83.3%
same,% WEED CONTROL FOR FALL PANICUM,[6]; [23],92.7%
same,% WEED CONTROL FOR FALL PANICUM,[6]; [24],95.5%
same,% WEED CONTROL FOR IVYLEAF MORNINGLORY,[7]; [19],16.5%
same,% WEED CONTROL FOR IVYLEAF MORNINGLORY,[7]; [20],52.3%
same,% WEED CONTROL FOR IVYLEAF MORNINGLORY,[7]; [21],70.1%
same,% WEED CONTROL FOR IVYLEAF MORNINGLORY,[7]; [22],5.1%
same,% WEED CONTROL FOR IVYLEAF MORNINGLORY,[7]; [23],41.2%
same,% WEED CONTROL FOR IVYLEAF MORNINGLORY,[7]; [24],64.0%
